# Assay results from ChEMBL document CHEMBL3046832, “Synthesis of some sulfonamides, disubstituted sulfonylureas or thioureas and some structurally related variants. A class of promising antitumor agents” (2007).
# Assays:
# Assay type in all cases: functional
# MDA-MB-435 = experiment: Cytotoxicity against Homo sapiens (human) MDA-MB-435 cells after 48 hr by SRB assay; details: MDA-MB-435, 48 h
# M14 = experiment: Cytotoxicity against Homo sapiens (human) M14 cells after 48 hr by SRB assay; details: M14, 48 h
# LOX IMVI = experiment: Cytotoxicity against Homo sapiens (human) LOXIMVI cells after 48 hr by SRB assay
# MCF7 [1] = experiment: Cytotoxicity against Homo sapiens (human) MCF7 cells after 48 hr by SRB assay; details: MCF7, 48 h
# MDA-MB-231 = experiment: Cytotoxicity against Homo sapiens (human) MDA-MB-231 cells after 48 hr by SRB assay; details: MDA-MB-231, 48 h
# UO-31 = experiment: Cytotoxicity against Homo sapiens (human) UO31 cells after 48 hr by SRB assay; details: UO-31, 48 h
# PC-3 = experiment: Cytotoxicity against Homo sapiens (human) PC3 cells after 48 hr by SRB assay; details: PC-3, 48 h
# RXF 393 = experiment: Cytotoxicity against Homo sapiens (human) RXF393 cells after 48 hr by SRB assay; details: RXF 393, 48 h
# 786-0 = experiment: Cytotoxicity against Homo sapiens (human) 786-0 cells after 48 hr by SRB assay; details: 786-0, 48 h
# SK-OV-3 = experiment: Cytotoxicity against Homo sapiens (human) SKOV3 cells after 48 hr by SRB assay; details: SK-OV-3, 48 h
# OVCAR-5 = experiment: Cytotoxicity against Homo sapiens (human) OVCAR5 cells after 48 hr by SRB assay; details: OVCAR-5, 48 h
# IGROV-1 = experiment: Cytotoxicity against Homo sapiens (human) IGROV1 cells after 48 hr by SRB assay; details: IGROV-1, 48 h
# OVCAR-3 = experiment: Cytotoxicity against Homo sapiens (human) OVCAR3 cells after 48 hr by SRB assay; details: OVCAR-3, 48 h
# UACC-62 = experiment: Cytotoxicity against Homo sapiens (human) UACC62 cells after 48 hr by SRB assay; details: UACC-62, 48 h
# UACC-257 = experiment: Cytotoxicity against Homo sapiens (human) UACC257 cells after 48 hr by SRB assay; details: UACC-257, 48 h
# SK-MEL-5 = experiment: Cytotoxicity against Homo sapiens (human) SK-MEL-5 cells after 48 hr by SRB assay; details: SK-MEL-5, 48 h
# SK-MEL-2 = experiment: Cytotoxicity against Homo sapiens (human) SK-MEL-2 cells after 48 hr by SRB assay; details: SK-MEL-2, 48 h
# SK-MEL-28 = experiment: Cytotoxicity against Homo sapiens (human) SK-MEL-28 cells after 48 hr by SRB assay; details: SK-MEL-28, 48 h
# [2] = Cytotoxicity against Homo sapiens (human) breast cancer cells after 48 hr by SRB assay; details: Cancer cell lines
# [3] = Cytotoxicity against Homo sapiens (human) prostate cancer cells after 48 hr by SRB assay; details: Cancer cell lines
# [4] = Cytotoxicity against Homo sapiens (human) renal cancer cells after 48 hr by SRB assay; details: Cancer cell lines
# [5] = Cytotoxicity against Homo sapiens (human) ovarian cancer cells after 48 hr by SRB assay; details: Cancer cell lines
# [6] = Cytotoxicity against Homo sapiens (human) melanoma cells after 48 hr by SRB assay; details: Melanoma cell
# [7] = Cytotoxicity against Homo sapiens (human) CNS cancer cells after 48 hr by SRB assay; details: Cancer cell lines
# [8] = Cytotoxicity against Homo sapiens (human) colon cancer cells after 48 hr by SRB assay; details: Cancer cell lines
# [9] = Cytotoxicity against Homo sapiens (human) non-small cell lung cancer cells after 48 hr by SRB assay; details: Cancer cell lines
# [10] = Cytotoxicity against Homo sapiens (human) leukemia cells after 48 hr by SRB assay; details: Leukemia cell
# SF-268 [11] = experiment: Cytotoxicity against Homo sapiens (human) SF268 cells assessed as cellular growth after 48 hr by Alamar blue assay; set-up: concentration or dose not given beside the values
# BT-549 = experiment: Cytotoxicity against Homo sapiens (human) BT549 cells after 48 hr by SRB assay; details: BT-549, 48 h
# SNB-19 = experiment: Cytotoxicity against Homo sapiens (human) SNB19 cells after 48 hr by SRB assay; details: SNB-19, 48 h
# SF-539 = experiment: Cytotoxicity against Homo sapiens (human) SF539 cells after 48 hr by SRB assay; details: SF-539, 48 h
# SF-295 = experiment: Cytotoxicity against Homo sapiens (human) SF295 cells after 48 hr by SRB assay; details: SF-295, 48 h
# SW-620 = experiment: Cytotoxicity against Homo sapiens (human) SW620 cells after 48 hr by SRB assay; details: SW-620, 48 h
# SF-268 [12] = experiment: Cytotoxicity against Homo sapiens (human) SF268 cells after 48 hr by SRB assay; details: SF-268, 48 h
# KM12 = experiment: Cytotoxicity against Homo sapiens (human) KM12 cells after 48 hr by SRB assay; details: KM12, 48 h
# HCT-15 = experiment: Cytotoxicity against Homo sapiens (human) HCT15 cells after 48 hr by SRB assay; details: HCT-15, 48 h
# HCC 2998 = experiment: Cytotoxicity against Homo sapiens (human) HCC2998 cells after 48 hr by SRB assay; details: HCC 2998, 48 h
# NCI-H522 = experiment: Cytotoxicity against Homo sapiens (human) NCI-H522 cells after 48 hr by SRB assay; details: NCI-H522, 48 h
# COLO 205 = experiment: Cytotoxicity against Homo sapiens (human) COLO205 cells after 48 hr by SRB assay; details: COLO 205, 48 h
# [13] = Cytotoxicity against Homo sapiens (human) NCI-H322 cells after 48 hr by SRB assay; details: NCI-H322, 48 h
# NCI-H460 = experiment: Cytotoxicity against Homo sapiens (human) NCI-H460 cells after 48 hr by SRB assay; details: NCI-H460, 48 h
# HOP-92 = experiment: Cytotoxicity against Homo sapiens (human) HOP92 cells after 48 hr by SRB assay; details: HOP-92, 48 h
# EKVX = experiment: Cytotoxicity against Homo sapiens (human) EKVX cells after 48 hr by SRB assay
# HOP-62 = experiment: Cytotoxicity against Homo sapiens (human) HOP62 cells after 48 hr by SRB assay; details: HOP-62, 48 h
# CCRF-CEM = experiment: Cytotoxicity against Homo sapiens (human) CCRF-CEM cells after 48 hr by SRB assay
# MCF7 [14] = experiment: Cytotoxicity against Homo sapiens (human) MCF7 cells assessed as cellular growth after 48 hr by Alamar blue assay; set-up: concentration or dose not given beside the values
smiles,measurement,setting,value
O=C1CS/C(=N\S(=O)(=O)c2ccc(N3N=C4c5ccccc5CC4C3c3cccs3)cc2)N(c2ccccc2)C1 (stereo not given),GI50,MDA-MB-435,29.5 µM
same,GI50,M14,39.1 µM
same,GI50,LOX IMVI,21.2 µM
same,GI50,MCF7 [1],88.8 µM
same,GI50,MDA-MB-231,21.4 µM
same,GI50,UO-31,69.3 µM
same,GI50,PC-3,45 µM
same,GI50,RXF 393,41 µM
same,GI50,786-0,22.1 µM
same,GI50,SK-OV-3,> 100 µM
same,GI50,OVCAR-5,34.5 µM
same,GI50,IGROV-1,19.5 µM
same,GI50,OVCAR-3,> 100 µM
same,GI50,UACC-62,16.1 µM
same,GI50,UACC-257,42.3 µM
same,GI50,SK-MEL-5,38.2 µM
same,GI50,SK-MEL-2,60.2 µM
same,GI50,SK-MEL-28,> 100 µM
same,GI50,[2],50.1 µM
same,TGI,[2],95.5 µM
same,GI50,[3],37.8 µM
same,TGI,[3],> 100 µM
same,GI50,[4],43.9 µM
same,TGI,[4],96.4 µM
same,GI50,[5],63.2 µM
same,TGI,[5],> 100 µM
same,GI50,[6],45.3 µM
same,TGI,[6],84.3 µM
same,GI50,[7],57.4 µM
same,TGI,[7],99.7 µM
same,GI50,[8],37.2 µM
same,TGI,[8],66.3 µM
same,GI50,[9],41.2 µM
same,TGI,[9],79 µM
same,GI50,[10],19.5 µM
same,TGI,[10],82.1 µM
same,Activity,SF-268 [11],<=32%
same,GI50,BT-549,21.4 µM
same,GI50,SNB-19,55.7 µM
same,GI50,SF-539,27.8 µM
same,GI50,SF-295,32.7 µM
same,GI50,SW-620,45.2 µM
same,GI50,SF-268 [12],> 100 µM
same,GI50,KM12,28.4 µM
same,GI50,HCT-15,35.5 µM
same,GI50,HCC 2998,20.5 µM
same,GI50,NCI-H522,23.8 µM
same,GI50,COLO 205,57.2 µM
same,GI50,[13],16.9 µM
same,GI50,NCI-H460,> 100 µM
same,GI50,HOP-92,79.9 µM
same,GI50,EKVX,39.5 µM
same,GI50,HOP-62,17.4 µM
same,GI50,CCRF-CEM,36.8 µM
same,Activity,MCF7 [14],<=32%
